The text below walks through data of patent US10934309B2, “Tricyclic quinone derivative” (Boston Biomedical, Inc., priority 2014, dated 2021).

The IC50 is the point on the concentration scale where inhibition reaches its midpoint.

Holding throughout (format): cell-based, human
In test [1] the test system is HCT-116 cells. Nature of the test: Proliferation inhibition assay of cancer cells (Test Example 1), HCT-116. The conditions noted are these: read-out: IC50 (μM) HCT, concentration for 50% inhibition of cell proliferation (Bulk IC50 value). The protocol: (§1) HCT-116 cells (derived from human colon adenocarcinoma), HT-29 cells (derived from human colon cancer), and FaDu cells (derived from human hypopharynx cancer) were obtained from American Type Culture Collection (ATCC). […] After cells were seeded at 300-600 cells/well onto black μClear-plate 384 well (Greiner bio-one Cat. No. 781091), a test substance was added such that the final concentration of DMSO is 0.1%, and cultured for 4 days. […] A test shown in Test example 1 was carried out for compounds obtained in the Examples.

Test [2] deals with HT-29 cells. Nature of the test: Inhibition assay of cancer cell sphere-forming ability (Test Example 2), HT-29. The following applies: read-out: IC50 (μM) HT, concentration for 50% inhibition of cell proliferation (Sphere IC50 value). How it is done:
(§2) HCT-116 cells (derived from human colon adenocarcinoma), HT-29 cells (derived from human colon cancer), FaDu cells (derived from human hypopharynx cancer) were obtained from American Type Culture Collection (ATCC). […] HCT-116 cells, HT-29 cells, and FaDu cells were seeded onto 384 Well Black Clear Bottom Ultra-Low Attachment Microplate (Corning Cat. […] A test substance was added so that the final concentration of DMSO is 0.1%, and then cultured for 4 days. […] A test shown in Test example 2 was carried out for compounds obtained in the Examples.

Test [3] relates to HCT-116 cells. Kind of test: Inhibition assay of cancer cell sphere-forming ability (Test Example 2), HCT-116. The conditions noted are these: read-out: IC50 (μM) HCT, concentration for 50% inhibition of cell proliferation (Sphere IC50 value). The protocol:
as §2

Test [4] deals with FaDu cells. Kind of test: Proliferation inhibition assay of cancer cells (Test Example 1), FaDu. The conditions noted are these: read-out: IC50 (μM) FaDu, concentration for 50% inhibition of cell proliferation (Bulk IC50 value). How it is done: as §1
The test system of test [5] is FaDu cells. Kind of test: Inhibition assay of cancer cell sphere-forming ability (Test Example 2), FaDu. The conditions noted are these: read-out: IC50 (μM) FaDu, concentration for 50% inhibition of cell proliferation (Sphere IC50 value). How it is done: as §2
For test [6], the system named is HT-29 cells. Nature of the test: Proliferation inhibition assay of cancer cells (Test Example 1), HT-29. The following applies: read-out: IC50 (μM) HT, concentration for 50% inhibition of cell proliferation (Bulk IC50 value). The protocol: as §1
Where [7] appears, read: Homo sapiens, HCT-116, 96 h, HCT-116 cells, cultured for 4 days, Cell Titer-Glo.
[8] abbreviates: Homo sapiens, HT-29, 96 h, HT-29 cells, Ultra-Low Attachment plate, serum-free DMEM/F12 with B27, EGF, bFGF, insulin, 4 days, Cell Titer-Glo.
[9] abbreviates: Homo sapiens, HCT-116, 96 h, HCT-116 cells, Ultra-Low Attachment plate, serum-free DMEM/F12 with B27, EGF, bFGF, insulin, 4 days, Cell Titer-Glo.
Setting [10] is: Homo sapiens, FaDu, 96 h, FaDu cells, cultured for 4 days, Cell Titer-Glo.
[11] abbreviates: Homo sapiens, FaDu, 96 h, FaDu cells, Ultra-Low Attachment plate, serum-free DMEM/F12 with B27, EGF, bFGF, insulin, 4 days, Cell Titer-Glo.
[12] abbreviates: Homo sapiens, HT-29, 96 h, HT-29 cells, cultured for 4 days, Cell Titer-Glo.

In the case of `CCN(Cc1cc2c(s1)C(=O)c1cccnc1C2=O)C1CCCCC1` [Example 5, 2-{[cyclohexyl(ethyl)amino]methyl}thieno[2,3-g]quinoline-4,9-dione], the IC50 in the test on HCT-116 cells [1] (setting [7]) amounted to 0.45 µM; with HT-29 cells [2] (setting [8]), 0.57 µM; with HCT-116 cells [3] (setting [9]) it was 0.39 µM; in the test with FaDu cells [4] (setting [10]) it was 0.54 µM; with FaDu cells [5] (setting [11]), 0.5 µM; with HT-29 cells [6] (setting [12]), 0.92 µM.
In the case of `CC(=O)c1cc2c(o1)C(=O)c1ccsc1C2=O` [Example 56, 2-acetylthieno[2,3-f][1]benzofuran-4,8-dione], the IC50 worked out at 0.09 µM with HCT-116 cells [1] (setting [7]); 0.58 µM in the test with HT-29 cells [2] (setting [8]); 0.06 µM in the test on HCT-116 cells [3] (setting [9]); 0.56 µM in the test on FaDu cells [4] (setting [10]); 0.08 µM in the test on FaDu cells [5] (setting [11]); 0.62 µM with HT-29 cells [6] (setting [12]).
Consider `O=C1c2cnccc2C(=O)c2sc(CN(CC(F)F)C(=O)C3CCCCC3)cc21` [Example 28, N-(2,2-difluoroethyl)-N-((4,9-dioxo-4,9-dihydrothieno[2,3-g]isoquinolin-2-yl)methyl)cyclohexanecarboxamide], for which the IC50 in the test with HCT-116 cells [1] (setting [7]) was determined as 0.47 µM; in the test on HT-29 cells [2] (setting [8]), 0.59 µM; in the test with HCT-116 cells [3] (setting [9]), 0.57 µM; with FaDu cells [4] (setting [10]), 0.08 µM; in the test on FaDu cells [5] (setting [11]), 0.09 µM; with HT-29 cells [6] (setting [12]), 0.63 µM.
For the compound `O=C1c2ccncc2C(=O)c2sc(CNCC(F)F)cc21` [Example 35, 2-{[(2,2-Difluoroethyl)amino]methyl}thieno[3,2-g]isoquinoline-4,9-dione], the IC50 was 0.08 µM with HCT-116 cells [1] (Homo sapiens, HCT-116, 96 h); 0.39 µM with HT-29 cells [2] (Homo sapiens, HT-29, 96 h); 0.27 µM with HCT-116 cells [3] (Homo sapiens, HCT-116, 96 h); 0.05 µM in the test on FaDu cells [4] (Homo sapiens, FaDu, 96 h); 0.04 µM in the test with FaDu cells [5] (Homo sapiens, FaDu, 96 h); 0.6 µM with HT-29 cells [6] (Homo sapiens, HT-29, 96 h).
`O=C1c2cnccc2C(=O)c2sc(CO)cc21` [Example 14, 2-(1-hydroxymethyl)thieno[2,3-g]isoquinoline-4,9-dione]: the IC50 stood at 0.06 µM in the test with HCT-116 cells [1] (setting [7]); 0.09 µM in the test with HT-29 cells [2] (setting [8]); 0.09 µM with HCT-116 cells [3] (setting [9]); 0.03 µM in the test with FaDu cells [4] (setting [10]); 0.02 µM in the test on FaDu cells [5] (setting [11]); 0.48 µM in the test with HT-29 cells [6] (setting [12]).
`CCN(Cc1cc2c(s1)C(=O)c1ccncc1C2=O)C1CCCCC1` [Example 25, 2-{[Cyclohexyl(ethyl)amino]methyl}thieno[2,3-g]isoquinoline-4,9-dione]: the IC50 in the test with HCT-116 cells [1] (setting [7]) is 0.69 µM; with HT-29 cells [2] (setting [8]) it was less than 0.01 µM; in the test on HCT-116 cells [3] (setting [9]) it was 0.8 µM; in the test with FaDu cells [4] (setting [10]), 0.46 µM; with FaDu cells [5] (setting [11]), 0.06 µM; in the test with HT-29 cells [6] (setting [12]) it was 0.96 µM.
As to `CC(=O)c1cc2c(o1)C(=O)c1ncccc1C2=O` [Example 50, 2-acetylfuro[3,2-g]quinoline-4,9-dione], the IC50 in the test on HCT-116 cells [1] (setting [7]) was 0.47 µM; in the test with HT-29 cells [2] (setting [8]) it was 0.58 µM; in the test with HCT-116 cells [3] (setting [9]), 0.26 µM; in the test on FaDu cells [4] (setting [10]), 0.47 µM; in the test with FaDu cells [5] (setting [11]), 0.17 µM; with HT-29 cells [6] (setting [12]), 0.59 µM.
Turning to `CC(O)c1cc2c(s1)C(=O)c1ncccc1C2=O` (stereo not drawn) [Example 37, 2-(1-hydroxyethyl)thieno[3,2-g]quinoline-4,9-dione], the IC50 with HCT-116 cells [1] (setting [7]) worked out at 0.06 µM; in the test on HT-29 cells [2] (setting [8]), 0.49 µM; with HCT-116 cells [3] (setting [9]) it was 0.06 µM; in the test with FaDu cells [4] (setting [10]), 0.08 µM; in the test on FaDu cells [5] (setting [11]), 0.06 µM; in the test with HT-29 cells [6] (setting [12]), 0.62 µM.
Take `CCN(Cc1ccncc1)Cc1cc2c(s1)C(=O)c1cccnc1C2=O` [Example 8, 2-{[ethyl(pyridin-4-ylmethyl)amino]methyl}thieno[2,3-g]quinoline-4,9-dione]: the IC50 was determined as 0.38 µM in the test with HCT-116 cells [1] (HCT-116 cells, cultured for 4 days, Cell Titer-Glo); 0.6 µM in the test with HT-29 cells [2] (HT-29 cells, Ultra-Low Attachment plate, serum-free DMEM/F12 with B27, EGF, bFGF, insulin, 4 days, Cell Titer-Glo); 0.41 µM with HCT-116 cells [3] (HCT-116 cells, Ultra-Low Attachment plate, serum-free DMEM/F12 with B27, EGF, bFGF, insulin, 4 days, Cell Titer-Glo); 0.37 µM in the test with FaDu cells [4] (FaDu cells, cultured for 4 days, Cell Titer-Glo); 0.32 µM with FaDu cells [5] (FaDu cells, Ultra-Low Attachment plate, serum-free DMEM/F12 with B27, EGF, bFGF, insulin, 4 days, Cell Titer-Glo); 0.83 µM with HT-29 cells [6] (HT-29 cells, cultured for 4 days, Cell Titer-Glo).
With `CC(C)(O)c1cc2c(o1)C(=O)c1sccc1C2=O` [Example 54, 2-(2-hydroxypropan-2-yl)thieno[3,2-f][1]benzofuran-4,8-dione], the IC50 came out at 0.61 µM with HCT-116 cells [1] (setting [7]); 0.77 µM in the test on HT-29 cells [2] (setting [8]); 0.6 µM in the test on HCT-116 cells [3] (setting [9]); 0.67 µM in the test with FaDu cells [4] (setting [10]); 0.59 µM with FaDu cells [5] (setting [11]); 2.47 µM with HT-29 cells [6] (setting [12]).
For `CC(=O)c1cc2c(o1)C(=O)c1cnccc1C2=O` [Example 48, 2-acetylfuro[3,2-g]isoquinoline-4,9-dione], the IC50 in the test with HCT-116 cells [1] (setting [7]) came to 0.07 µM; in the test with HT-29 cells [2] (setting [8]) it was 0.55 µM; in the test with HCT-116 cells [3] (setting [9]) it was 0.07 µM; in the test with FaDu cells [4] (setting [10]), 0.06 µM; in the test with FaDu cells [5] (setting [11]) it was 0.05 µM; in the test on HT-29 cells [6] (setting [12]), 0.62 µM.
For the compound `CC(O)c1cc2c(o1)C(=O)c1cccnc1C2=O` (stereo not drawn) [Example 43, 2-(1-hydroxyethyl)furo[2,3-g]quinoline-4,9-dione], the IC50 came out at 0.62 µM with HCT-116 cells [1] (setting [7]); 0.6 µM in the test with HT-29 cells [2] (setting [8]); 0.51 µM with HCT-116 cells [3] (setting [9]); 0.66 µM in the test on FaDu cells [4] (setting [10]); 0.33 µM in the test with FaDu cells [5] (setting [11]); 5.62 µM in the test with HT-29 cells [6] (setting [12]).
For `O=C1c2cc(CN3CCOCC3)sc2C(=O)c2nccnc21` [Example 59, 7-(morpholin-4-ylmethyl)thieno[2,3-g]quinoxaline-5,9-dione], the IC50 with HCT-116 cells [1] (setting [7]) came to 0.28 µM; in the test with HT-29 cells [2] (setting [8]), 0.63 µM; in the test on HCT-116 cells [3] (setting [9]), 0.05 µM; in the test with FaDu cells [4] (setting [10]), 0.36 µM; in the test with FaDu cells [5] (setting [11]) it was 0.06 µM; in the test with HT-29 cells [6] (setting [12]) it was 0.84 µM.
For the compound `CC(=O)c1cc2c(o1)C(=O)c1sccc1C2=O` [Example 52, 2-acetylthieno[3,2-f][1]benzofuran-4,8-dione], the IC50 in the test on HCT-116 cells [1] (setting [7]) turned out to be 0.07 µM; in the test on HT-29 cells [2] (setting [8]), 0.08 µM; with HCT-116 cells [3] (setting [9]) it was 0.05 µM; in the test with FaDu cells [4] (setting [10]) it was 0.43 µM; with FaDu cells [5] (setting [11]) it was 0.06 µM; with HT-29 cells [6] (setting [12]), 0.64 µM.
`CC(=O)c1oc2c(c1C(=O)N1CCOCC1)C(=O)c1cnccc1C2=O` [Example 47, 2-acetyl-3-(morpholin-4-carbonyl)furo[2,3-g]isoquinoline-4,9-dione]: the IC50 with HCT-116 cells [1] (setting [7]) stood at 0.36 µM; in the test on HT-29 cells [2] (setting [8]), 0.17 µM; in the test on HCT-116 cells [3] (setting [9]), 0.26 µM; in the test on FaDu cells [4] (setting [10]), 0.05 µM; in the test with FaDu cells [5] (setting [11]) it was 0.05 µM; in the test with HT-29 cells [6] (setting [12]) it was 0.41 µM.
Turning to `CC(O)c1cc2c(o1)C(=O)c1sccc1C2=O` (stereo not drawn) [Example 53, 2-(1-hydroxyethyl)thieno[3,2-f][1]benzofuran-4,8-dione], the IC50 in the test on HCT-116 cells [1] (setting [7]) was 0.55 µM; with HT-29 cells [2] (setting [8]), 0.59 µM; in the test with HCT-116 cells [3] (setting [9]), 0.56 µM; in the test with FaDu cells [4] (setting [10]), 0.64 µM; in the test on FaDu cells [5] (setting [11]) it was 0.45 µM; with HT-29 cells [6] (setting [12]), 0.68 µM.
For the compound `CC(=O)c1cc2c(s1)C(=O)c1ncccc1C2=O` [Example 36, 2-acetylthieno[3,2-g]quinoline-4,9-dione], the IC50 with HCT-116 cells [1] (setting [7]) was 0.1 µM; with HT-29 cells [2] (setting [8]), 0.25 µM; in the test with HCT-116 cells [3] (setting [9]), 0.07 µM; in the test with FaDu cells [4] (setting [10]) it was 0.09 µM; in the test with FaDu cells [5] (setting [11]), 0.05 µM; in the test on HT-29 cells [6] (setting [12]), 0.73 µM.
